# Assay results as given in article PMC7664879, “Discovery of 12O—A Novel Oral Multi-Kinase Inhibitor for the Treatment of Solid Tumor” (Molecules, 2020).
# Test system: SiHa cells
# Experiment: Cell cycle assay (propidium iodide, flow cytometry)
# Format: cell-based, human
# Details: 0.04 μM, 24 h
# Description: To understand how 12O inhibited cell proliferation, cell cycle analysis was performed. The effect of 12O on cell cycle distribution was assessed in the SiHa cell lines. […] Of note, 12O at 0.04 μM was able to increase the proportion of the cells in the G2/M phase from approximately 16.0 ± 1.3% (DMSO) to 22.3 ± 0.7%, and decreased the corresponding fraction of the cells in the S phase from about 22.8 ± 0.4 % (DMSO) to 16.1 ± 1.1 % (Figure 3).
# Cells were plated on 6-well culture plates at a density of 5 × 10^5 cells/mL. The cells were treated with the indicated concentrations of 12O or ribociclib for 24 h after their adherence. Cells were washed with PBS for three times and then fixed with ice cold 75% ethanol overnight. The fixed cells were then washed with PBS and stained with propidium iodide ([…]) in the presence of RNase A (0.5 mg) for 30 min at 37 °C. The stained cells were then subjected to flow cytometry (Becton Dickinson (BD), San Jose, CA, USA.) for cell cycle analysis.
structure (smiles),measurement,setting,value
CC(C)n1nnc2ccc(-c3nc(Nc4ccc(CNC(=O)C5(C(=O)Nc6ccccc6)CC5)cc4)ncc3F)cc21 [12O],proportion of the cells in the G2/M phase,DMSO 16.0 ± 1.3%,22.3 ± 0.7%
same,fraction of the cells in the S phase,DMSO 22.8 ± 0.4 %,16.1 ± 1.1%
